Measurements from US9781933B2, “Tetrazolinone compound and use thereof” (Sumitomo Chemical Company, Limited, priority 2013, dated 2017).

Test system: wheat rust fungus (Puccinia recondita)
Assay: Comparative Test Example: wheat rust control at 50 ppm
Format: in vivo
Conditions: 50 ppm foliar spray; wheat (SHIROGANE); inoculated 5 days after spraying
Method: After spraying, the plant was air-dried so as to dry the dilution on the surface of the leaves. […] After the inoculation, the plant was placed at 23° C. for one day under dark and high humidity condition, and cultivated, under illumination at 20° C. for 8 days, and then the area of lesion was investigated.

SMILES | area of lesion relative to that on an untreated plant [%]
Cc1cccc(-n2nnn(C)c2=O)c1COc1ccn(-c2ccc(F)cn2)n1 [compound 40] | ≤ 30
Cn1nnn(-c2ccccc2COc2ccn(-c3ccc(F)cc3)n2)c1=O [control compound, 1-(2-{[1-(4-fluorophenyl)-1H-pyrazol-3-yl]oxymethyl}-phenyl)-4-methyl-1,4-dihydrotetrazol-5-one] | ≥ 70
